Data as given in patent US20250195551A1 (L4 BIO LLC, priority 2023, published 2025).
Entries after “also recorded” stand apart in the source; their conditions may differ.

System: pentylenetetrazol (PTZ)-induced ictal brain activity
Experiment: Modulation of pentylenetetrazol (PTZ)-induced seizures, BOLD fMRI in rats
Type: in vivo
Details: 3 mg/kg, positive control; anesthetized male Wistar rats
Procedure: Functional MRI (fMRI) was performed using a high-field preclinical MRI system in anesthetized male Wistar rats in order to determine the modulation of pentylenetetrazol (PTZ)-induced ictal brain activity by chronic treatment with test compound (TC). Animals treated with vehicle and 3 mg/kg Alprazolam served as controls. A schematic of the study design can be seen in FIG. 6. […] Various physiological parameters were also measured throughout the experiment including body weight, CO2 levels, blood pH, and heart rate.

Cc1nnc2n1-c1ccc(Cl)cc1C(c1ccccc1)=NC2 [Alprazolam]
PTZ-induced ictal brain activity (BOLD fMRI area under the curve) vs vehicle: effectively cancelled PTZ-induced brain activity; also recorded: Vehicle vs. Alprazolam in all
